Reference: article PMC7414126 (Scientific Reports, 2020)

Experiments:
hH2R = hH2R (Homo sapiens, UniProt P25021); assay: Flow cytometric saturation binding assay with HEK293T-hH2R-qs5-HA cells; set-up: expressed in transfected cells; host or cells: HEK293T-hH2R-qs5-HA cells; settings: saturation binding at HEK293T-hH2R-qs5-HA cells; mean ± SEM; read-out: pKd (Flow cytometry) (converted)
Protocol: All flow cytometric measurements were performed with FACSCanto™II flow cytometer (Becton Dickinson, Heidelberg, Germany), equipped with an argon laser (488 nm) and a red diode laser (633 nm) (settings: FCS: A, log, 0 V; SSC: A, log, 252 V; ACP: A,H,W, log, 350 V or PerCP-Cy5-5: A,H, log 485 V or PE: A,H,W, log, 420 V) according to general protocols with minor modifications.^4,5 All measurements were performed in duplicate and recorded either in channel PerCP-Cy5 (Py-1, excitation: 488 nm), APC (BODIPY 630/650, excitation: 633 nm) or PE (TAMRA, excitation: 488 nm). Data acquisition was stopped after 10,000 gated events.
Cell culture and preparation of HEK293T-hH2R-qs5-HA cells was performed as described.^4 Briefly, cells were maintained in 25 or 175 cm^2 flasks (Sarstedt, Nümbrecht, Germany) in a humidified atmosphere (95% air, 5% CO2) at 37 °C using Dulbecco`s Modified Eagle`s Medium supplemented with 2 mM L-glutamine (Sigma-Aldrich, Munich, Germany), 10% FCS, 400 µg/mL geneticin (G418), and 100 µg/mL hygromycin B (AG Scientific, San Diego, CA, USA). On the day of the experiment, cells were detached with trypsin/EDTA (0.05%/0.2%) and centrifuged (500 x g, 5 min). The cell pellet was resuspended in Leibovitz’ L-15 medium containing 1% FCS and the cell density was adjusted to 1 x 10^6 cells/mL. The serial dilutions of the tested fluorescent ligands and famotidine (competitor, for non-specific binding) were prepared in DMSO/H2O (1:1, v/v). All incubation steps were performed in 96-well Primaria^TM plates (CORNING, NY, USA). 200 µL of the adjusted cell suspension were either added to 2 µL of DMSO/H2O (1:1, v/v, total binding) or to 2 µl of famotidine (300-fold excess over the fluorescent ligand, non-specific binding). Incubation was started by addition of 2 µL of the respective fluorescent ligand in different concentrations (100-fold concentrated with respect to the final concentration). […] Samples were transferred to 5 mL polystyrol FACS tubes (Sarstedt, Nümbrecht, Germany) and measured immediately. […]

hH2R-Gsαs fusion protein = molecular target: T1, hH2R-Gsαs fusion protein (Homo sapiens, UniProt P25021); assay: Radioligand competition binding with [3H]UR-DE257 on Sf9 membranes; settings: read-out: pKi (RL comp. binding Sf9 membranes) (converted)
T1 construct: made in house; host or cells: Sf9 insect cells (recombinant baculovirus), membrane preparation
T1 sequence (P25021+P63092 fused): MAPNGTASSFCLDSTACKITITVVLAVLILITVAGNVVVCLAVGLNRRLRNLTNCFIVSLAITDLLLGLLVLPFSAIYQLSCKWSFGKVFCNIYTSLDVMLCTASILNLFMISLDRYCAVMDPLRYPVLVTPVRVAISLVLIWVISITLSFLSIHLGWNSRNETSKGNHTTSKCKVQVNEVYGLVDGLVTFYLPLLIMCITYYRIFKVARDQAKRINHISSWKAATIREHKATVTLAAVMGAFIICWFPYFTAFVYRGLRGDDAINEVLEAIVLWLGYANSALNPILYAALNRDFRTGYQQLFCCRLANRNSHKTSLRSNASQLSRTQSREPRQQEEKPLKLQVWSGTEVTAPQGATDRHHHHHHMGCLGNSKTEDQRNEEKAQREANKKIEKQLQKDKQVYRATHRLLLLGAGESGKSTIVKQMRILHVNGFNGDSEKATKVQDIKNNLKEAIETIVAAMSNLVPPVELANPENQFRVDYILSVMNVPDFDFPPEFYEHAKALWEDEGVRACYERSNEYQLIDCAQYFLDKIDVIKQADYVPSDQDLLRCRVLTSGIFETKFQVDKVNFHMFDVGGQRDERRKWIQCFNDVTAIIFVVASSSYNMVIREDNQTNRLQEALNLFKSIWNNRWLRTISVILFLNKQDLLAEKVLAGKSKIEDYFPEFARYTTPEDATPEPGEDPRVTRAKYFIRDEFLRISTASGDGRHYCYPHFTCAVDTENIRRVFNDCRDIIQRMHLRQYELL
Protocol: All data analysis was performed using Prism 5.0c (GraphPad, San Diego, CA, USA).

Sequence of hH2R (P25021 whole entry): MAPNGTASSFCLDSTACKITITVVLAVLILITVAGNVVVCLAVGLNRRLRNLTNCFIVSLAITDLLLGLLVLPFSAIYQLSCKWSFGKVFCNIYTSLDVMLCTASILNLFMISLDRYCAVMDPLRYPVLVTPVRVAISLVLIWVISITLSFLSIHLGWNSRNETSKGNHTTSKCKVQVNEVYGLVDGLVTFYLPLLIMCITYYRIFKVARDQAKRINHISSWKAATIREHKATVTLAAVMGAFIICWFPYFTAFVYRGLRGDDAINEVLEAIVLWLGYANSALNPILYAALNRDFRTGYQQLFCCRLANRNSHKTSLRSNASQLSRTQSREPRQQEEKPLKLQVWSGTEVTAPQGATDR

`Cc1cc(/C=C/c2cc3c4c(c2)CCCN4CCC3)cc(C)[n+]1CCCCNc1c(NCCCOc2cccc(CN3CCCCC3)c2)c(=O)c1=O` [Compound 8, (E)-1-(4-((3,4-Dioxo-2-((3-(3-(piperidin-1-ylmethyl)phenoxy)propyl)amino)cyclobut-1-en-1-yl)amino)butyl)-2,6-dimethyl-4-(2-(2,3,6,7-tetrahydro-1H,5H-pyrido[3,2,1-ij]quinolin-9-yl)vinyl)pyridin-1-ium] gave a Kd (hH2R) of 74.1 nM and a Ki (hH2R-Gsαs fusion protein) of 24 nM.
